Patent publication US20240140986A1, “SYNTHETIC URSOLIC ACID DERIVATIVES AND METHODS OF USE THEREOF” (REATA PHARMACEUTICALS, INC., priority 2021, published 2024)
Read-outs that look alike come from different tables or passages of the source.

Columns and labels:
[1] = test system: IFNγ-induced NO production in RAW 264.7 cells; test: Nitric Oxide Suppression Assay (IFNγ-induced NO, Griess nitrite readout); format: cell-based, mouse; conditions: for IC50: Mus musculus
Method: Tissue Culture: RAW 264.7, a mouse macrophage cell line, was obtained from American Type Culture Collection (Manassas VA) and maintained in the log phase of growth in Roswell Park Memorial Institute Medium 1640 (RPMI 1640) supplemented with 10% heat inactivated fetal bovine serum and 1% penicillin-streptomycin. Cells were cultured and maintained in a humidified incubator at 37° C. under 5% C02. Cells were sub-cultured every 2-4 days. All cell culture supplies were obtained from Life Technologies (Grand Island, NY) and VWR (Radnor, PA).
Nitric Oxide Suppression Assay. RAW 264.7 cells were plated 1 day in advance of experimental treatments at a concentration of 30,000 cells per well onto Falcon-96 well clear bottom plates (Corning, NY) in a total volume of 200 μL per well using RPMI 1640 supplemented with 0.5% fetal bovine serum and 1% penicillin-streptomycin. The next day, cells were pretreated with compounds serially diluted from 1000×stocks. All compounds were dissolved in dimethyl sulfoxide (DMSO) usually at 10 mM stock solutions. Compounds were subsequently diluted in DMSO and RPMI 1640. Each well received a final concentration of 0.1% DMSO. Cells were pretreated for 2 hours and incubation at 37° C., followed by treatment with 20 ng/mL of interferon gamma (R&D Systems, Minneapolis, MN) per well for 24 hours. The next day, a nitrite standard was serially diluted from 100 μM to 1.6 μM in RPMI 1640. Afterwards, 50 μL of cell culture supernatant was transferred from each well into a new Falcon-96 well clear bottom plate. Nitrite was measured as surrogate for nitric oxide using Promega's Griess Detection Kit #G2930 (Madison, WI) which involves the addition of 50 μL of the provided sulfanilamide solution to each well of the transferred cell culture supernatant and standards, followed by a 10-minute incubation at room temperature. Next, 50 μL of the provided N-1-napthylethylenediamine dihydrochloride (NED) solution was added to the sulfanilamide reaction and incubated for 10 minutes at room temperature in the dark. Afterwards, air bubbles were removed using ethanol vapor and absorbance was measured using a Spectramax M2e plate reader with a wavelength set to 525 nm. Viability was assessed using WST-1 cell proliferation reagent from Roche (Basel, Switzerland). After media was removed for the Nitric Oxide suppression assay, 15 μL of WST-1 reagent was added to each well of cells. Plates were briefly mixed on an orbital shaker and the cells were incubated at 37° C. for 30-90 minutes. Absorbance was measured using a Spectramax M2e plate reader with wavelengths set to 440 nm and 700 nm.
For the ability of compounds to suppress the increase in nitric oxide release caused by interferon gamma, the absolute amount of nitrite that was produced in each well was extrapolated from the nitrite standards using a linear regression fit. All values were then normalized to the DMSO-interferon gamma treated wells and plotted as percent nitric oxide. IC50 values were calculated using Excel and/or GraphPad Prism (San Diego, CA).

[2] = test system: Nrf2 / ARE-dependent luciferase in AREc32 reporter cell line; test: AREc32 luciferase reporter activation (Nrf2 induction); format: cell-based, human; conditions: for EC (2-fold): Homo sapiens, Arec32
Method: Effect on Ludferase Reporter Activation. Nrf2 is a transcription factor that binds to the antioxidant response element (ARE) sequence in the promoter regions of its target genes. AREc32 reporter cell line (derived from human breast carcinoma MCF7 cells) was obtained was from CXR Bioscience Limited (Dundee, UK) and cultured in DMEM (low glucose) supplemented with 10% FBS, 1% penicillin/streptomycin, and 0.8 mg/ml Geneticin (G418). This cell line is stably transfected with a luciferase reporter gene under the transcriptional control of eight copies of the rat GSTA2 ARE sequence (5′-GTGACAAAGCA-3′) (Wang et al., 2006). Expression of Firefly luciferase from this reporter plasmid is controlled by binding of Nrf2 to these ARE sequences. Measurement of ARE-dependent luciferase activity allows quantitative assessment of Nrf2 induction. AREc32 cell line has previously been used in studies characterizing different Nrf2 activators (Dinkova-Kostova & Wang, 2011; Roubalová et al., 2016; Roubalová et al, 2017; Wu et al, 2012).
The effect of several compounds disclosed herein on luciferase reporter activation was assessed in the AREc32 reporter cell line (see Table 10 and Table 11). This cell line is derived from human breast carcinoma MCF-7 cells and is stably transfected with a luciferase reporter gene under the transcriptional control of eight copies of the antioxidant response element from the rat Gsta2 gene, an Nrf2 target gene (Frilling et al., 1990). AREc32 cells were plated in black 96-well plates in 200 μL media at 20,000 cells per well. Twenty-four hours after plating, cells were treated with vehicle (DMSO) or test compounds at concentrations ranging from 0.03 to 1000 nM for nineteen hours. Media was removed and 100 μL of 1:1 mixture of the One-Glo Luciferase assay reagent and culture medium was added to each well. After incubation for 5 min at room temperature, the luminescence signal was measured on a PHERAstar plate reader. The EC2X value was determined using Excel and GraphPad Prism software. The fold increase in luminescence signal for cells treated with each concentration of compound relative to cells treated with vehicle was determined and a dose-response curve was generated. The dose-response curve was fit using nonlinear regression analysis and used to extrapolate the EC2X value. The EC2X value is defined as the concentration of test compound required to increase the luminescence signal 2-fold above levels in vehicle-treated samples.

[3] = RAW264.7, Table 3, oleanolic acid derivative analogs, read-out: Avg NO IC50
[4] = Table 3, oleanolic acid derivative analogs, read-out: Avg ARE EC-2X

Structure (SMILES) | IC50 [1, 3] | EC (2-fold) [2, 4] | IC50 ([1]; RAW264.7, Table 2, RAW 264.7 cells, 2 h pretreatment, 20 ng/mL interferon gamma 24 h, read-out: Avg NO IC50 (nM) (Mean ± SD)) | Avg NO IC50 Relative to RTA402 (fold) ([1]; Table 2, ratio to RTA402) | EC (2-fold) ([2]; Table 2, concentration increasing luminescence 2-fold above vehicle, 19 h treatment, read-out: Avg AREc32 EC2X (nM) (Mean ± SD)) | Relative Avg AREc32 EC2X Relative to RTA402 (fold) ([2]; Table 2, ratio to RTA402)
CC1(C)CC[C@]2(Cn3ccnc3)CC[C@]3(C)[C@H](C(=O)C=C4[C@@]5(C)C=C(C#N)C(=O)C(C)(C)[C@@H]5CC[C@]43C)[C@@H]2C1 [CC51, reference compound] | 3.9 nM | 18 nM | – | – | – | –
CC1(C)CC[C@]2(CN3NCCC3=O)CC[C@]3(C)[C@H](C(=O)C=C4[C@@]5(C)C=C(C#N)C(=O)C(C)(C)[C@@H]5CC[C@]43C)[C@@H]2C1 [CC54, reference compound] | 8.6 nM | 11.7 nM | – | – | – | –
C[C@@H]1[C@H]2[C@H]3C(=O)C=C4[C@@]5(C)C=C(C#N)C(=O)C(C)(C)[C@@H]5CC[C@@]4(C)[C@]3(C)CC[C@@]2(N2CCOC2=O)CC[C@H]1C [CC59, reference compound] | 2.2 nM | 23.6 nM | – | – | – | –
CC1(C)CC[C@]2(n3ccnc3)CC[C@]3(C)[C@H](C(=O)C=C4[C@@]5(C)C=C(C#N)C(=O)C(C)(C)[C@@H]5CC[C@]43C)[C@@H]2C1 [CC62, reference compound] | 3.2 nM | 26.8 nM | – | – | – | –
Cc1nnc([C@]23CCC(C)(C)C[C@H]2[C@H]2C(=O)C=C4[C@@]5(C)C=C(C#N)C(=O)C(C)(C)[C@@H]5CC[C@@]4(C)[C@]2(C)CC3)o1 [CC69, reference compound] | 2.2 nM | 9.81 nM | – | – | – | –
CC1(C)CC[C@]2(N3CCC3=O)CC[C@]3(C)[C@H](C(=O)C=C4[C@@]5(C)C=C(C#N)C(=O)C(C)(C)[C@@H]5CC[C@]43C)[C@@H]2C1 [CC74, reference compound] | 4.3 nM | 36.1 nM | – | – | – | –
Cc1nc([C@]23CCC(C)(C)C[C@H]2[C@H]2C(=O)C=C4[C@@]5(C)C=C(C#N)C(=O)C(C)(C)[C@@H]5CC[C@@]4(C)[C@]2(C)CC3)no1 [CC82, reference compound] | 3.8 nM | 22.1 nM | – | – | – | –
Cc1noc([C@]23CC[C@@H](C)[C@H](C)[C@H]2[C@H]2C(=O)C=C4[C@@]5(C)C=C(C#N)C(=O)C(C)(C)[C@@H]5CC[C@@]4(C)[C@]2(C)CC3)n1 [Compound T1] | – | – | 3.76 ± 1.35 nM | 2.53 ± 0.74 fold | 8.44 ± 1.56 nM | 0.744 ± 0.121 fold
